≈ marks a conversion by molar mass, not a printed value.
Columns and labels:
Format in all cases: cell-based
Settings in all cases: EL-4, TPA 10 ng/ml, 24 hours, ELISA; for IC50: Mus musculus, T-cell
[1] = system: IL-2 production of mouse T cell strain EL-4 (TPA); assay: Suppressive effect on the cytokine production of mouse T cell strain EL-4: IL-2
Procedure: (§1) Experiment 8 Suppressive Effect on the Cytokine Production of a Mouse T Cell Strain EL-4 In 48-well plate were added 2×10^5 mouse T cell strain EL-4 which were suspended in 0.2 ml of 1% fetal bovine serum-added RPMI 1640 medium (2 mM of sodium bicarbonate, 50 units/ml of penicillin, 50 μg/ml of streptomycin and 5×10^−5 M of 2-mercaptoethanol were added) and the compound of the present invention of a predetermined concentration. TPA was added as a cell stimulater at a final concentration of 10 ng/ml to adjust a final volume of each well to 0.4 ml. Each compound of the present invention was dissolved in DMSO and diluted with the above RPMI 1640 medium, and then for added at a final concentration of 100 ng/ml or less. The cells in the 48-well plate were cultivated in an incubator keeping the humidity 100%, carbon dioxide 5% and air 95% at 37° C. for 24 hours to collect a supernatant of each well. The amount of IL-2, IL-4 and IL-5 released in the medium of each well were measured with the ELISA kit (Amersham K. K.) to be taken as an index of the cytokine production of the cells. TPA free group (-TPA) was used as a control.

[2] = system: IL-4 production of mouse T cell strain EL-4 (TPA); assay: Suppressive effect on the cytokine production of mouse T cell strain EL-4: IL-4
Procedure: as §1

[3] = system: IL-5 production of mouse T cell strain EL-4 (TPA); assay: Suppressive effect on the cytokine production of mouse T cell strain EL-4: IL-5
Procedure: as §1

IC50 IL-2 [1] [µg/mL] | IC50 IL-4 [2] [µg/mL] | IC50 IL-5 [3] [µg/mL] | IC50 [1] [µg/mL] | IC50 [2] [µg/mL] | IC50 [3] [µg/mL] | SMILES
>1 | 0.042 (≈ 0.0967 µM) | 0.08 (≈ 0.184 µM) | – | – | – | COc1cc(-c2ccc(O)cc2)c(OC)c(C)c1-c1ccc(OCCC=C(C)C)c(O)c1 [Compound I-229]
>0.5 | 0.014 (≈ 0.0314 µM) | 0.12 (≈ 0.269 µM) | – | – | – | COc1cc(-c2ccc(F)cc2)c(OC)c(O)c1-c1ccc(OCc2ccccc2)c(O)c1 [Compound I-4]
>1 | 0.07 (≈ 0.165 µM) | 0.047 (≈ 0.111 µM) | – | – | – | COc1cc(-c2ccc(O)cc2)c(OC)c(O)c1-c1ccc(OC/C=C/CO)c(O)c1 [Compound I-296]
>1 | 0.088 (≈ 0.201 µM) | >1 | – | – | – | COc1cc(-c2ccc(F)cc2)c(OC)c(C=O)c1-c1ccc(OCC=C(C)C)c(F)c1 [Compound I-379]
>0.1 | 0.017 (≈ 0.0349 µM) | 0.1 (≈ 0.206 µM) | – | – | – | COC(=O)c1ccc(-c2cc(OC)c(-c3ccc(OCc4ccccc4)c(O)c3)c(O)c2OC)cc1 [Compound I-237]
>10 | 0.1 (≈ 0.159 µM) | 10 (≈ 15.9 µM) | – | – | – | COc1cc(-c2ccc(C(F)(F)F)cc2)c(OC)c(OS(C)(=O)=O)c1-c1ccc(OCC=C(C)C)c(OS(C)(=O)=O)c1 [Compound I-189]
>0.5 | 0.029 (≈ 0.0614 µM) | 0.01 (≈ 0.0212 µM) | – | – | – | COc1cc(-c2ccc(O)cc2)c(OC)c(O)c1-c1ccc(OCc2ccc(C)cc2C)c(O)c1 [Compound I-309]
>0.5 | 0.007 (≈ 0.0143 µM) | 0.11 (≈ 0.224 µM) | – | – | – | COc1cc(-c2ccc(O)cc2)c(OC)c(O)c1-c1ccc(OC/C=C(\C)CCC=C(C)C)c(O)c1 [Compound I-37]
>2 | 0.0002 (≈ 0.000355 µM) | 1 (≈ 1.78 µM) | – | – | – | COc1cc(-c2ccc(OCC=C(C)C)c(OS(C)(=O)=O)c2)c(OC)cc1-c1ccc(OS(C)(=O)=O)cc1 [Compound I-70]
>2 | <0.02 | <0.02 | – | – | – | COc1cc(-c2ccc(OS(C)(=O)=O)cc2)c(OC)c(OS(C)(=O)=O)c1-c1ccc(OCc2c(C)cc(C)cc2C)c(OS(C)(=O)=O)c1 [Compound I-202]
>1 | 0.052 (≈ 0.0713 µM) | 0.023 (≈ 0.0315 µM) | – | – | – | COc1cc(-c2ccc(OS(C)(=O)=O)cc2)c(OC)c(OS(C)(=O)=O)c1-c1ccc(OCc2ccc3ccccc3n2)c(OS(C)(=O)=O)c1 [Compound I-307]
>0.2 | 0.014 (≈ 0.0296 µM) | 0.012 (≈ 0.0254 µM) | – | – | – | COc1cc(-c2ccc(O)cc2)c(OC)c(O)c1-c1ccc(OCc2cc(C)cc(C)c2)c(O)c1 [Compound I-209]
>10 | 0.14 (≈ 0.229 µM) | 1 (≈ 1.63 µM) | – | – | – | COc1cc(-c2ccc(OS(C)(=O)=O)cc2)c(OC)c(OS(C)(=O)=O)c1-c1ccc(OCc2ccccc2)c(C=O)c1 [Compound I-83]
>1 | 0.013 (≈ 0.0172 µM) | >1 | – | – | – | COc1cc(-c2ccc(OS(C)(=O)=O)cc2)c(OC)c(OS(C)(=O)=O)c1-c1ccc(OCc2ccc(-c3ccccc3)cc2)c(OS(C)(=O)=O)c1 [Compound I-403]
>1 | 0.035 (≈ 0.0545 µM) | >1 | – | – | – | COC(=O)c1ccc(-c2cc(OC)c(-c3ccc(OCc4ccccc4)c(OS(C)(=O)=O)c3)c(OS(C)(=O)=O)c2OC)cc1 [Compound I-238]
0.88 (≈ 1.87 µM) | 0.017 (≈ 0.0361 µM) | 0.3 (≈ 0.638 µM) | – | – | – | COc1cc(-c2ccc(O)cc2)c(OC)c(O)c1-c1ccc(S(=O)(=O)CC=C(C)C)c(O)c1 [Compound I-226]
>1 | 0.025 (≈ 0.0573 µM) | 0.023 (≈ 0.0527 µM) | – | – | – | COc1cc(-c2ccc(O)cc2)c(OC)c(O)c1-c1ccc(OCC(C)=C(C)C)c(O)c1 [Compound I-213]
>1 | 0.01 (≈ 0.0139 µM) | 0.34 (≈ 0.472 µM) | – | – | – | COc1cc(-c2ccc(OS(C)(=O)=O)cc2)c(OC)c(OS(C)(=O)=O)c1-c1ccc(OCc2ccc(C(C)C)cc2)c(OS(C)(=O)=O)c1 [Compound I-305]

IC50 IL-2 [1] [µg/mL] | IC50 IL-4 [2] [µg/mL] | IC50 IL-5 [3] [µg/mL] | IC50 [1] [µg/mL] | IC50 [2] [µg/mL] | IC50 [3] [µg/mL] | SMILES
>1 | 0.075 (≈ 0.13 µM) | 0.04 (≈ 0.0694 µM) | – | – | – | COc1cc(-c2ccc(OS(C)(=O)=O)cc2)c(OC)c(OS(C)(=O)=O)c1-c1ccc(OCCC=C(C)C)cc1 [Compound I-387]
>1 | 0.021 (≈ 0.0356 µM) | 0.03 (≈ 0.0508 µM) | – | – | – | COc1cc(-c2ccc(OS(C)(=O)=O)cc2)c(OC)c(C)c1-c1ccc(OCCC=C(C)C)c(OS(C)(=O)=O)c1 [Compound I-228]
>1 | 0.038 (≈ 0.0875 µM) | 0.09 (≈ 0.207 µM) | – | – | – | COc1cc(-c2ccc(C)cc2)c(OC)c(O)c1-c1ccc(OCCC=C(C)C)c(O)c1 [Compound I-279]
>1 | 0.1 (≈ 0.165 µM) | 0.88 (≈ 1.45 µM) | – | – | – | COc1cc(-c2ccc(N(C)C)cc2)c(OC)c(OS(C)(=O)=O)c1-c1ccc(OCC=C(C)C)c(OS(C)(=O)=O)c1 [Compound I-242]
>1 | 0.025 (≈ 0.0551 µM) | 0.28 (≈ 0.617 µM) | – | – | – | COc1cc(-c2ccc(O)cc2)c(OC)c(O)c1-c1ccc(OCC=NNC(N)=O)c(O)c1 [Compound I-302]
>1 | 0.072 (≈ 0.121 µM) | 0.38 (≈ 0.639 µM) | – | – | – | COc1cc(-c2c(OC)cc(-c3ccc(OS(C)(=O)=O)cc3)c(OC)c2CO)c(OC)cc1OCc1ccc(C)cc1 [Compound I-368]
– | – | – | > 0.5 | 0.063 (≈ 0.114 µM) | > 0.55 | COc1cc(-c2ccc(OS(C)(=O)=O)cc2)c(OC)c(CO)c1-c1ccc(OCc2ccccc2)c(CO)c1 [Compound I-243]
>1 | 0.013 (≈ 0.0212 µM) | 0.02 (≈ 0.0326 µM) | – | – | – | COc1cc(-c2ccc(OS(C)(=O)=O)cc2)c(OC)c(C)c1-c1ccc(OCc2ccc(C)cc2)c(OS(C)(=O)=O)c1 [Compound I-230]
1 (≈ 2.17 µM) | 0.016 (≈ 0.0347 µM) | 0.045 (≈ 0.0975 µM) | – | – | – | COc1cc(-c2ccc(O)cc2)c(OC)c(O)c1-c1ccc(SCc2ccccn2)c(O)c1 [Compound I-223]
>1 | 0.001 to 0.01 | >1 | – | – | – | COc1cc(-c2ccc(OS(C)(=O)=O)cc2)c(OC)c(OS(C)(=O)=O)c1-c1ccc(OS(=O)(=O)c2ccc(C)cc2)c(OS(C)(=O)=O)c1 [Compound I-395]
>1 | 0.012 (≈ 0.0253 µM) | 0.0038 (≈ 0.00801 µM) | – | – | – | COc1cc(-c2ccc(SC)cc2)c(OC)c(O)c1-c1ccc(OCc2ccccc2)c(O)c1 [Compound I-233]
>10 | 0.1 (≈ 0.159 µM) | 11 (≈ 17.5 µM) | – | – | – | COc1cc(-c2ccc(OS(C)(=O)=O)cc2)c(OC)c(OS(C)(=O)=O)c1-c1ccc(OCc2ccccc2)c(C(N)=O)c1 [Compound I-148]
>0.1 | 0.007 (≈ 0.0148 µM) | 0.01 (≈ 0.0211 µM) | – | – | – | COc1cc(-c2ccc(C(F)(F)F)cc2)c(OC)c(O)c1-c1ccc(OCC=C(C)C)c(O)c1 [Compound I-190]
>10 | 0.14 (≈ 0.204 µM) | 0.45 (≈ 0.657 µM) | – | – | – | COc1cc(-c2ccc(OS(C)(=O)=O)cc2)c(OC)c(OS(C)(=O)=O)c1-c1cc(C=O)c(OCC=C(C)C)c(OS(C)(=O)=O)c1 [Compound I-128]
>0.5 | <0.005 | 0.13 (≈ 0.275 µM) | – | – | – | COc1ccccc1-c1cc(OC)c(-c2ccc(OCc3ccc(C)cc3)c(O)c2)c(O)c1OC [Compound I-282]
>1 | 0.15 (≈ 0.307 µM) | 0.72 (≈ 1.47 µM) | – | – | – | COc1cc(-c2cccc(C(F)(F)F)c2)c(OC)c(O)c1-c1ccc(OCCC=C(C)C)c(O)c1 [Compound I-220]
– | – | – | > 1 | 0.054 (≈ 0.0822 µM) | 0.9 (≈ 1.37 µM) | COC(=O)c1ccc(-c2cc(OC)c(-c3ccc(OCc4ccc(C)cc4)c(OS(C)(=O)=O)c3)c(OS(C)(=O)=O)c2OC)cc1 [Compound I-239]
